The values that follow come from US10196393B2, “JAK inhibitors containing a 4-membered heterocyclic amide” (THERAVANCE BIOPHARMA R&D IP, LLC, priority 2017, dated 2019).

For test [1], the system named is Alternaria alternata-induced eosinophilic inflammation of the lung (BALF eosinophils). The test can be described thus: Murine model of Alternaria alternata-induced eosinophilic inflammation of the lung. The following applies: mouse, oropharyngeal aspiration 0.03-1.0 mg/mL, BALF 48 h after challenge; maximum statistically significant inhibition. The test is classed as in vivo. From the text:
Assay 5: Murine Model of Alternaria alternata-Induced Eosinophilic Inflammation of the Lung
Airway eosinophilia is a hallmark of human asthma. Alternaria alternata is a fungal aeroallergen that can exacerbate asthma in humans and induces eosinophilic inflammation in the lungs of mice (Havaux et al. Clin Exp Immunol. 2005 February; 139(2):179-88).
Seven- to nine-week old male C57 mice from Taconic were used in the study. On the day of study, animals were lightly anesthetized with isoflurane and administered either vehicle or test compound (0.03-1.0 mg/mL, 50 μL total volume over several breaths) via oropharyngeal aspiration. Animals were placed in lateral recumbency post dose and monitored for full recovery from anesthesia before being returned to their home cage. One hour later, animals were once again briefly anesthetized and challenged with either vehicle or alternaria extract (200 ug total extract delivered, 50 μL total volume) via oropharyngeal aspiration before being monitored for recovery from anesthesia and returned to their home cage. Forty-eight hours after alternaria administration, bronchoalveolar lavage fluid (BALF) was collected and eosinophils were counted in the BALF using the Advia 120 Hematology System (Siemens). […]

A further test deals with JAK1 (Homo sapiens (Human), UniProt P23458). The test can be described thus: Biochemical JAK kinase assay (LanthaScreen), JAK1. The conditions noted are these: converted from pIC50 with Cheng-Prusoff equation. On the procedure: (§1) Assay 1: Biochemical JAK Kinase Assays
Chain of JAK1 (P23458 whole entry): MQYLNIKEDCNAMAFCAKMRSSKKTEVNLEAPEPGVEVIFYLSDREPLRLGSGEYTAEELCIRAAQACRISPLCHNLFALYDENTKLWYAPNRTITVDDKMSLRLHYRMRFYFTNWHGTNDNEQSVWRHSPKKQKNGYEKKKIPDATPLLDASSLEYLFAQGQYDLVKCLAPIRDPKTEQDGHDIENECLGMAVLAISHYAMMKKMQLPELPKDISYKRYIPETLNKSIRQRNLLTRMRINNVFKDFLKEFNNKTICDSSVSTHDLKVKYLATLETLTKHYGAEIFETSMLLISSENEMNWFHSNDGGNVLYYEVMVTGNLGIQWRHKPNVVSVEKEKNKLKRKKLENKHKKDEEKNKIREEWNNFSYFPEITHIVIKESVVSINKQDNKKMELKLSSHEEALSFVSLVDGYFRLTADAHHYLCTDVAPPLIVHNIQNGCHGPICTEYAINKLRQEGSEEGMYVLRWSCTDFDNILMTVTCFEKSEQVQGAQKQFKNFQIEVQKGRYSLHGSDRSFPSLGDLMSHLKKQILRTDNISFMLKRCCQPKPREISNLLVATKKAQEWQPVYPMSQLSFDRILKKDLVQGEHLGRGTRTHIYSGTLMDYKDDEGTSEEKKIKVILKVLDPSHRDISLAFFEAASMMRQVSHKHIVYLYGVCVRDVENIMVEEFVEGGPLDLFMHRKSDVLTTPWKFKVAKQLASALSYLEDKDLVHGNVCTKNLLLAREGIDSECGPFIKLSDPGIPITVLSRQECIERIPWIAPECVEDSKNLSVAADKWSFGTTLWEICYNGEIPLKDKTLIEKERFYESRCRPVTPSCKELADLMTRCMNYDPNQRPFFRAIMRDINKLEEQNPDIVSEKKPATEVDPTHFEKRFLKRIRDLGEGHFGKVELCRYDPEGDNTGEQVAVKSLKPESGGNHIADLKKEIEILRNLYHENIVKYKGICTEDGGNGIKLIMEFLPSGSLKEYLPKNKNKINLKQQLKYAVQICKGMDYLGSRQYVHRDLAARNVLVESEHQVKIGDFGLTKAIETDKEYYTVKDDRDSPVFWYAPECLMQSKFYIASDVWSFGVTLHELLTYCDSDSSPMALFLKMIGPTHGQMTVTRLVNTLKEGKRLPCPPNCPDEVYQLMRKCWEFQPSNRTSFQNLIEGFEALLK
(§2) A panel of four LanthaScreen JAK biochemical assays (JAK1, 2, 3 and Tyk2) were carried in a common kinase reaction buffer (50 mM HEPES, pH 7.5, 0.01% Brij-35, 10 mM MgCl2, and 1 mM EGTA). Recombinant GST-tagged JAK enzymes and a GFP-tagged STAT1 peptide substrate were obtained from Life Technologies.
(§3) Serially diluted compounds were pre-incubated with each of the four JAK enzymes and the substrate in white 384-well microplates (Corning) at ambient temperature for 1 h. ATP was subsequently added to initiate the kinase reactions in 10 μL total volume, with 1% DMSO. […] The plates were allowed to incubate at ambient temperature for 1 h before being read on the EnVision reader (Perkin Elmer).
(§4) For dose-response analysis, percent inhibition data were plotted vs. compound concentrations, and IC50 values were determined from a 4-parameter robust fit model with the Prism software (GraphPad Software). Results were expressed as pIC50 (negative logarithm of IC50) and subsequently converted to pKi (negative logarithm of dissociation constant, Ki) using the Cheng-Prusoff equation.

In another test the target is JAK3 (Homo sapiens (Human), UniProt P52333). Kind of test: Biochemical JAK kinase assay (LanthaScreen), JAK3. The following applies: converted from pIC50 with Cheng-Prusoff equation. Here is the method:
as §1, §2, §3, §4

Test [2] deals with IFNγ induced CXCL10 and CXCL9 secretion in EpiAirway tissue cultures. Kind of test: Inhibition of IFNγ induced chemokines CXCL9 and CXCL10 in human 3D airway cultures. It is filed as cell-based. The following applies: 192 h, Day 8, ±STDV. On the procedure:
Assay 7: Inhibition of IFNγ and IL-27 Induced Chemokines CXCL9 and CXCL10 in Human 3D Airway Cultures
EpiAirway tissue cultures were obtained from Mattek (AIR-100). Cultures were derived from asthmatic donors. In a cell culture insert, human derived tracheal/bronchial epithelial cells were grown and differentiated on a porous membrane support, allowing an air-liquid interface with warmed culture medium below the cells and a gaseous test atmosphere above. Tissues were cultured in maintenance media (Mattek, AIR-100-MM) in a 37° C., 5% CO2 humidified incubator. Four donors were tested. On Day 0, tissue cultures were treated with test compounds at 10 μM, 1 μM and/or 0.1 μM. Compounds were diluted in dimethyl sulfoxide (DMSO, Sigma) to a final concentration of 0.1%. DMSO at 0.1% was used as a vehicle control. Test compounds were incubated with cultures for 1 hour at 37° C., 5% CO2, followed by the addition of pre-warmed media containing IFNγ (R&D Systems) or IL-27 (R&D Systems) at a final concentration at 100 ng/ml. Tissue cultures were maintained for 8 days. Media was replaced every 2 days with fresh media containing compounds and IFNγ or IL-27. On Day 8, tissue cultures and supernatants were collected for analysis. Supernatant samples were assayed for CXCL10 (IP-10) and CXCL9 (MIG) using luminex analysis (EMD Millipore). Data is expressed as % Inhibition +/−standard deviation (±STDV). Percent inhibition was determined by compound inhibitory potency against IFNγ or IL-27 induced CXCL10 or CXCL9 secretion compared to vehicle treated cells. Data is the average from 3 or 4 donors. […] The compound of example 2 was able to inhibit IFNγ induced CXCL9 secretion by 93%±13 (at 10 μM) and 24%±49 (at 1 μM) when compared to vehicle.

Where two headings read alike, the source gives them in different places.

Chain of JAK3 (P52333 whole entry): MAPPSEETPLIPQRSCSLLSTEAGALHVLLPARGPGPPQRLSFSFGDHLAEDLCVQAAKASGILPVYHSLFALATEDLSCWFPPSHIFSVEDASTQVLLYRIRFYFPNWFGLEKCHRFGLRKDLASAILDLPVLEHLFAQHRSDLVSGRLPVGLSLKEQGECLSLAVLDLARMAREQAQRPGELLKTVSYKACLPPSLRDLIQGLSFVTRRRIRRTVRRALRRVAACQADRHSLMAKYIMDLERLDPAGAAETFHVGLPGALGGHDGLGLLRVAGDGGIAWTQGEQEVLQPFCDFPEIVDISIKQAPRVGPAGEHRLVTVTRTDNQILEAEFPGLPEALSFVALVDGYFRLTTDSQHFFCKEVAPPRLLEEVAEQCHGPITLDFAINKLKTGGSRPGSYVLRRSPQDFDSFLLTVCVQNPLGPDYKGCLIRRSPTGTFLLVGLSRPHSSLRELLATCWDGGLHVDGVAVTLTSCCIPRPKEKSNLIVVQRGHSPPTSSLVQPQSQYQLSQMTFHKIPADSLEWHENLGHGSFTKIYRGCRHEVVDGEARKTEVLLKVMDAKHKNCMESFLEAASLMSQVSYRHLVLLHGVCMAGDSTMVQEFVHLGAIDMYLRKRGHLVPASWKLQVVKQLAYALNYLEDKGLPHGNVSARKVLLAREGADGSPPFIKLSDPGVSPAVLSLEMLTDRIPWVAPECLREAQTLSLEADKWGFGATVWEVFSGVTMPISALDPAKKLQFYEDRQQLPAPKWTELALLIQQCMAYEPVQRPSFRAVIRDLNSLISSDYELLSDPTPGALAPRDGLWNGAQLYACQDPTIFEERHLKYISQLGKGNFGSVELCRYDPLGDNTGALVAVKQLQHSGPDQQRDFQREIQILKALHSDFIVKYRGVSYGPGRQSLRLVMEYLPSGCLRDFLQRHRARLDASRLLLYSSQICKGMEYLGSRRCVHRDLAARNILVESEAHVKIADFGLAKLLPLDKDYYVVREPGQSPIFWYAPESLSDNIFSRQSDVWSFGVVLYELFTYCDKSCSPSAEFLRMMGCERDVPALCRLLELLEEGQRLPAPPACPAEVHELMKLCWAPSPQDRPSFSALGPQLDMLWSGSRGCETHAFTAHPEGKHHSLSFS

On to `CCc1cc(O)c(F)cc1-c1ccc2c(-c3nc4c([nH]3)CN(C(C)C)[C@H](C(=O)N3CC(N(C)C)C3)C4)n[nH]c2c1` [Example 2, (S)-(3-(dimethylamino)azetidin-1-yl)(2-(6-(2-ethyl-5-fluoro-4-hydroxyphenyl)-1H-indazol-3-yl)-5-isopropyl-4,5,6,7-tetrahydro-3H-imidazo[4,5-c]pyridin-6-yl)methanone], for which the “Percent Inhibition of Alternaria-induced BALF Eosinophils” value in test [1] was 74%. For the same compound, the Ki on JAK1 was found to be 0.04 nM; at JAK3, 0.1 nM. Further, in test [2] (at 0.1 μM), the inhibition at 0.1 µM was 6%. For the same compound, the inhibition at 1 µM in test [2] (at 1 μM) worked out at 24%. Besides, the inhibition at 10 µM worked out at 101% in test [2] (3 or 4 donors, read-out: % inhibition of IFNγ induced CXCL10 secretion) and 93% in test [2] (read-out: % inhibition of IFNγ induced CXCL9 secretion).
